US10736883B2, “Triazole furan compounds as agonists of the APJ receptor” (AMGEN INC., priority 2016, dated 2020)

molecular target: APJ receptor (Homo sapiens (Human), UniProt P35414); assay: [35S]GTPγS binding assay on membranes from CHO cells stably expressing human APJ receptor; type: biochemical; conditions: membranes of CHO cells stably expressing human APJ receptor, means of several independent experiments, read-out: Activity hAPJ SPA EC50 IP
How it was run: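 EC50 values were obtained by non-linear regression of [35S]GTPγS (0.2 nM) binding after 90 min at RT, with nonspecific binding defined by 100 μM GTPγS. Reactions used human APJ–expressing CHO cell membranes on WGA PS beads in HEPES pH 7.5 buffer with 5 mM MgCl2, 200 mM NaCl, 3 μM GDP and 0.1% BSA.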

Sequence of APJ receptor (P35414 whole entry): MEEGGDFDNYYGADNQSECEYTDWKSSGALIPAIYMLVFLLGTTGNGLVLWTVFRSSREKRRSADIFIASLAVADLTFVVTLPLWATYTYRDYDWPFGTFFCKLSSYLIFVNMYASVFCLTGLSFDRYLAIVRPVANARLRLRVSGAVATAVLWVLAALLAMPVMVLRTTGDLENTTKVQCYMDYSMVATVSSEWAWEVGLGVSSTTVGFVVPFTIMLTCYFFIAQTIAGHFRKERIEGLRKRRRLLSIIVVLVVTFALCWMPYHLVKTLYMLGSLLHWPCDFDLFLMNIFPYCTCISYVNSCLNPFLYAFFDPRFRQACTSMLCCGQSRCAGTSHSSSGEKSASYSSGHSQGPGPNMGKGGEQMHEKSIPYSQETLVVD

EC50 | SMILES
1.9 nM | COc1cccc(OC)c1-n1c(NS(=O)(=O)[C@@H]2C[C@H](C#N)CN(c3ncc(F)cn3)C2)nnc1-c1ccc(C)o1 (single isomer, unassigned) [Example 174.0, (3R,5S)-5-Cyano-N-(4-(2,6-dimethoxyphenyl)-5-(5-methyl-2-furanyl)-4H-1,2,4-triazol-3-yl)-1-(5-fluoro-2-pyrimidinyl)-3-piperidinesulfonamide or (3S,5R)-5-cyano-N-(4-(2,6-dimethoxyphenyl)-5-(5-methyl-2-furanyl)-4H-1,2,4-triazol-3-yl)-1-(5-fluoro-2-pyrimidinyl)-3-piperidinesulfonamide]
0.45 nM | COc1cccc(OC)c1-n1c(NS(=O)(=O)C[C@@H](C)c2ncc(F)cn2)nnc1-c1ccc(C)o1 (single isomer, unassigned) [Example 126.0, (S)—N-(4-(2,6-Dimethoxyphenyl)-5-(5-methylfuran-2-yl)-4H-1,2,4-triazol-3-yl)-2-(5-fluoropyrimidin-2-yl)propane-1-sulfonamide or (R)—N-(4-(2,6-dimethoxyphenyl)-5-(5-methylfuran-2-yl)-4H-1,2,4-triazol-3-yl)-2-(5-fluoropyrimidin-2-yl)propane-1-sulfonamide]
0.167 nM | COc1cccc(OC)c1-n1c(NS(=O)(=O)[C@H](C)[C@@H](OC)c2cn3ccccc3n2)nnc1-c1ccc(C)o1 (racemic) [Example 264.0, (1R,2S)—N-(4-(2,6-Dimethoxyphenyl)-5-(5-methyl-2-furanyl)-4H-1,2,4-triazol-3-yl)-1-imidazo[1,2-a]pyridin-2-yl-1-methoxy-2-propanesulfonamide and (1S,2R)—N-(4-(2,6-dimethoxyphenyl)-5-(5-methyl-2-furanyl)-4H-1,2,4-triazol-3-yl)-1-imidazo[1,2-a]pyridin-2-yl-1-methoxy-2-propanesulfonamide]
11 nM | COc1cccc(OC)c1-n1c(NS(=O)(=O)[C@@H](C)[C@H](O)c2ccc(C#N)cn2)nnc1-c1ccc(C)o1 (single isomer, unassigned) [Example 40.0, (1R,2S)-1-(5-cyano-2-pyridinyl)-N-(4-(2,6-dimethoxyphenyl)-5-(5-methyl-2-furanyl)-4H-1,2,4-triazol-3-yl)-1-hydroxy-2-propanesulfonamide or (1S,2R)-1-(5-cyano-2-pyridinyl)-N-(4-(2,6-dimethoxyphenyl)-5-(5-methyl-2-furanyl)-4H-1,2,4-triazol-3-yl)-1-hydroxy-2-propanesulfonamide]
44 nM | COc1cccc(OC)c1-n1c(NS(=O)(=O)[C@H](C)Cc2ccncn2)nnc1-c1ccco1 (single isomer, unassigned) [Example 44.0, (2R)—N-(4-(2,6-dimethoxyphenyl)-5-(2-furanyl)-4H-1,2,4-triazol-3-yl)-1-(4-pyrimidinyl)-2-propanesulfonamide or (2S)—N-(4-(2,6-dimethoxyphenyl)-5-(2-furanyl)-4H-1,2,4-triazol-3-yl)-1-(4-pyrimidinyl)-2-propanesulfonamide]
4.8 nM | COc1cccc(OC)c1-n1c(NS(=O)(=O)[C@H]2CCCN(c3ncc(F)cn3)C2)nnc1-c1ccco1 [Example 206.0, (3S)—N-(4-(2,6-Dimethoxyphenyl)-5-(2-furanyl)-4H-1,2,4-triazol-3-yl)-1-(5-fluoro-2-pyrimidinyl)-3-piperidinesulfonamide]
0.52 nM | COc1cnc(N2C[C@H](O)C[C@H](S(=O)(=O)Nc3nnc(-c4ccc(C)o4)n3-c3c(OC)cccc3OC)C2)nc1 (racemic) [Example 335.0, (3S,5R)—N-(4-(2,6-Dimethoxyphenyl)-5-(5-methylfuran-2-yl)-4H-1,2,4-triazol-3-yl)-5-hydroxy-1-(5-methoxypyrimidin-2-yl)piperidine-3-sulfonamide and (3R,5S)—N-(4-(2,6-dimethoxyphenyl)-5-(5-methylfuran-2-yl)-4H-1,2,4-triazol-3-yl)-5-hydroxy-1-(5-methoxypyrimidin-2-yl)piperidine-3-sulfonamide]
0.31 nM | CCN(CC)C(=O)c1cc(Cl)cnc1C[C@@H](C)S(=O)(=O)Nc1nnc(-c2ccco2)n1-c1c(OC)cccc1OC (single isomer, unassigned) [Example 21.0, 5-chloro-2-((2R)-2-((4-(2,6-dimethoxyphenyl)-5-(2-furanyl)-4H-1,2,4-triazol-3-yl)sulfamoyl)propyl)-N,N-diethyl-3-pyridinecarboxamide or 5-chloro-2-((2S)-2-((4-(2,6-dimethoxyphenyl)-5-(2-furanyl)-4H-1,2,4-triazol-3-yl)sulfamoyl)propyl)-N,N-diethyl-3-pyridinecarboxamide]

More lines, now with the values behind:

SMILES | EC50
COc1cccc(OC)c1-n1c(NS(=O)(=O)[C@H](C)Cc2cnc(C)cn2)nnc1-c1ccco1 (single isomer, unassigned) [Example 32.0, (2R)—N-(4-(2,6-dimethoxyphenyl)-5-(2-furanyl)-4H-1,2,4-triazol-3-yl)-1-(5-methyl-2-pyrazinyl)-2-propanesulfonamide or (2S)—N-(4-(2,6-dimethoxyphenyl)-5-(2-furanyl)-4H-1,2,4-triazol-3-yl)-1-(5-methyl-2-pyrazinyl)-2-propanesulfonamide] | 2.3 nM
COc1cccc(OC)c1-n1c(NS(=O)(=O)[C@@H]2CC[C@@H](O)[C@H](O)C2)nnc1-c1ccc(C)o1 (single isomer, unassigned) [Example 406.0] | 67 nM
COc1cccc(OC)c1-n1c(NS(=O)(=O)[C@H]2C[C@@H](O)CN(C(=O)N(C)C)C2)nnc1-c1ccc(C)o1 (single isomer, unassigned) [Example 337.0, (3S,5R)-3-(N-(4-(2,6-Dimethoxyphenyl)-5-(5-methylfuran-2-yl)-4H-1,2,4-triazol-3-yl)sulfamoyl)-5-hydroxy-N,N-dimethylpiperidine-1-carboxamide or (3R,5S)-3-(N-(4-(2,6-dimethoxyphenyl)-5-(5-methylfuran-2-yl)-4H-1,2,4-triazol-3-yl)sulfamoyl)-5-hydroxy-N,N-dimethylpiperidine-1-carboxamide] | 1.3 nM
COc1cccc(OC)c1-n1c(NS(=O)(=O)CCc2ncc(C)cn2)nnc1-c1ccco1 [Example 39.0, N-(4-(2,6-dimethoxyphenyl)-5-(2-furanyl)-4H-1,2,4-triazol-3-yl)-2-(5-methyl-2-pyrimidinyl)ethanesulfonamide] | 6.6 nM
COc1cccc(OC)c1-n1c(NS(=O)(=O)CCc2ncc(Cl)cc2C2=CCNCC2)nnc1-c1ccco1 [Example 220.0, 2-(5-Chloro-1′,2′,3′,6′-tetrahydro-3,4′-bipyridin-2-yl)-N-(4-(2,6-dimethoxyphenyl)-5-(2-furanyl)-4H-1,2,4-triazol-3-yl)ethanesulfonamide] | 0.27 nM
COCC[C@@H]([C@H](C)c1ncc(F)cn1)S(=O)(=O)Nc1nnc(-c2ccc(C)o2)n1-c1c(OC)cccc1OC (single isomer, unassigned) [Example 67.0] | 0.36 nM
COc1cccc(OC)c1-n1c(NS(=O)(=O)[C@H](C)Cc2ccc(C)nn2)nnc1-c1ccc(C)o1 (single isomer, unassigned) [Example 43.0, (2R)—N-(4-(2,6-dimethoxyphenyl)-5-(5-methyl-2-furanyl)-4H-1,2,4-triazol-3-yl)-1-(6-methyl-3-pyridazinyl)-2-propanesulfonamide or (2S)—N-(4-(2,6-dimethoxyphenyl)-5-(5-methyl-2-furanyl)-4H-1,2,4-triazol-3-yl)-1-(6-methyl-3-pyridazinyl)-2-propanesulfonamide] | 25 nM
COc1cccc(OC)c1-n1c(NS(=O)(=O)CCc2ccc(C#N)cn2)nnc1-c1ccc(C)o1 [Example 19.0, 2-(5-cyano-2-pyridinyl)-N-(4-(2,6-dimethoxyphenyl)-5-(5-methyl-2-furanyl)-4H-1,2,4-triazol-3-yl)ethanesulfonamide] | 0.29 nM
CCc1ccc(-c2nnc(NS(=O)(=O)[C@@H](C)Cc3ncc(F)cn3)n2-c2c(OC)cccc2OC)o1 (single isomer, unassigned) [Example 99.0, (2S)—N-(4-(2,6-Dimethoxyphenyl)-5-(5-ethyl-2-furanyl)-4H-1,2,4-triazol-3-yl)-1-(5-fluoro-2-pyrimidinyl)-2-propanesulfonamide or (2R)—N-(4-(2,6-dimethoxyphenyl)-5-(5-ethyl-2-furanyl)-4H-1,2,4-triazol-3-yl)-1-(5-fluoro-2-pyrimidinyl)-2-propanesulfonamide] | 1 nM
COc1cccc(OC)c1-n1c(NS(=O)(=O)[C@@H](C)[C@H](C)c2ncc(F)cn2)nnc1-c1ccc(C)o1 (racemic) [Example 135.0] | 16 nM
COc1cccc(OC)c1-n1c(NS(=O)(=O)[C@@H](C)[C@](C)(F)c2ncc(C#N)cn2)nnc1-c1ccc(C)o1 (single isomer, unassigned) [Example 230.0] | 0.41 nM
COc1cccc(OC)c1-n1c(NS(=O)(=O)[C@H](C)[C@@H](O)c2ccc(C#N)c(C)n2)nnc1-c1ccc(C)o1 (racemic) [Example 88.0] | 0.51 nM
COc1cccc(OC)c1-n1c(NS(=O)(=O)CCc2ncc(Cl)cc2-c2cc[nH]n2)nnc1-c1ccco1 [Example 223.0, 2-(5-chloro-3-(1H-pyrazol-3-yl)-2-pyridinyl)-N-(4-(2,6-dimethoxyphenyl)-5-(2-furanyl)-4H-1,2,4-triazol-3-yl)ethanesulfonamide] | 0.32 nM
COc1cccc(OC)c1-n1c(NS(=O)(=O)[C@@H](C)Cc2ncc(F)c(C)n2)nnc1-c1ccco1 (racemic) [Example 234.0, (2S)—N-(4-(2,6-Dimethoxyphenyl)-5-(2-furanyl)-4H-1,2,4-triazol-3-yl)-1-(5-fluoro-4-methyl-2-pyrimidinyl)-2-propanesulfonamide and (2R)—N-(4-(2,6-dimethoxyphenyl)-5-(2-furanyl)-4H-1,2,4-triazol-3-yl)-1-(5-fluoro-4-methyl-2-pyrimidinyl)-2-propanesulfonamide] | 0.54 nM
COc1cccc(OC)c1-n1c(NS(=O)(=O)[C@@H]2COCC[C@@H]2O)nnc1-c1ccc(C)o1 (single isomer, unassigned) [Example 404.0] | 36 nM
